Columns and labels:
[1] = Expert taster comparison in Campbell's French onion soup; details: 10 ppb in Campbell's French onion soup
Description: (§1) Samples were evaluated by expert tasters. Tasters were asked to describe the samples focusing on authentic taste, mouthfeel, fullness, salty-ness, salivation, umami, sweetness, juiciness, richness, long lastingness and fattiness
Base is Campbell's® French onion soup

[2] = Expert taster comparison in a cheese onion crisp; details: 10 ppb in crisp with proprietary cheese onion powder flavoring @ 6%
Description: as §1
Comparison in a Cheese Onion Crisp
Base is a crisp with proprietary cheese onion powder flavoring @ 6%

[3] = Expert taster comparison in UNOX 'Franse uiensoep' onion soup; details: 10 ppb in UNOX 'Franse uiensoep'
Description: as §1
Base is UNOX ‘Franse uiensoep’

[4] = Expert taster comparison in a cheese sauce; details: 0.5 ppm in Maggie Saus Base with 0.05 g ethanol
Description: Samples were evaluated by expert tasters. Tasters were asked to describe the samples focusing on authentic taste, mouthfeel, fullness, salty-ness, salivation, umami, sweetness, juiciness, richness, long lastingness and fattiness.
Comparison in a Cheese Sauce
Base is a Maggie Saus Base with 0.05 g ethanol

SMILES	taste description versus base [1]	taste description versus base [2]	taste description versus base [3]	taste description versus base [4]
CCCCCCCC/C=C\CCCCCCCC(=O)N[C@@H](CC[S+](C)[O-])C(=O)O (stereo partly drawn) [Met-SO C18:1, (2S)-4-(methylsulfinyl)-2-oleamidobutanoic acid]	slightly stronger in salt; onion character slightly enhanced	salt/taste level enhanced; onion character more fried	slightly stronger in salt; onion character increased	
CCCCCCCC/C=C\CCCCCCCC(=O)N[C@H](C[S+](C)[O-])C(=O)O (stereo partly drawn) [(2S)-3-(methylsulfinyl)-2-oleamidopropanoic acid]				salt/umami/fullness/cheesiness level enhanced

Source: patent US11319285B2, “N-acylated methionine sulfoxides as food flavouring compounds” (Givaudan S.A., priority 2015, dated 2022)
